Experimental data published in patent US20180273528A1 (LES LABORATOIRES SERVIER, priority 2015, published 2018).

Biological target: T1, His-TEV-DYRK1A Kinase domain (aa127-485) (Homo sapiens, UniProt Q13627)
T1 construct: His-TEV-DYRK1A Kinase domain (aa127-485); His tag (N); TEV protease cleavage site (N)
Experiment: Kinase ADP assay (ADP Hunter), DYRK1A kinase domain
Format: biochemical
Conditions: 20 μM ATP
Protocol: The enzyme reaction was conducted in assay buffer (pH 7.4), containing 15 mM Hepes; 20 mM NaCl; 1 mM EGTA; 10 mM MgCl2; 0.02% Tween20 and 0.1 mg/ml Bovine-y-globulin. Test compounds of the invention were added in reaction buffer in a range of concentrations for 10 minutes at 30° C. in the presence of 20 nM DYRK1A enzyme, 40 μM peptide substrate and 20 μM ATP. Detection reagents (DiscoveRx 90-0083), ADP Hunter Plus Reagent A and then ADP Hunter Plus Reagent B were added. After a following 20 minutes incubation at 30° C., ADP Hunter Plus Stop Solution was added. The fluorescence intensity was measured at 590 nm.

**Q.** Which IC50 does the source give for “4-{3-[2-(2,6-dimethoxyphenoxy)ethyl]-3H-imidazo[4,5-b]pyridin-5-yl}pyridine-2,6-diamine [Example 213]” here?
**A.** The IC50 was 0.069 µM.

**Q.** Which IC50 does the source give for Cc1nc2ccc(-c3cc(N)nc(N)c3)nc2n1[C@H](C)COc1ccccc1 (single isomer, unassigned) [Example 104] here?
**A.** Its IC50 is 0.045 µM.

**Q.** With Cc1nc2ccc(-c3cc(N)nc(N)c3)nc2n1[C@@H](C)COc1ccccc1 (single isomer, unassigned) [Example 105] as the compound, how does the IC50 read?
**A.** Its IC50 is 0.092 µM.

**Q.** How did the IC50 turn out when Cc1nc2ccc(-c3cc(N)nc(N)c3)nc2n1C[C@@H](C)Oc1ccccc1Cl (single isomer, unassigned) [Example 118] was run?
**A.** Its IC50 is 0.031 µM.

**Q.** For Cc1nc2ccc(-c3cc(N)nc(N)c3)nc2n1C[C@@H](C)Oc1ccc(F)cc1 (single isomer, unassigned) [Example 130], which IC50 is on record?
**A.** Its IC50 is 0.058 µM.

**Q.** Which IC50 does the source give for COc1ccccc1O[C@H](C)Cn1c(C)nc2ccc(-c3cc(N)nc(N)c3)nc21 (single isomer, unassigned) [Example 142] here?
**A.** The IC50 was 0.037 µM.

**Q.** How did the IC50 turn out when Cc1nc2ccc(-c3cc(N)nc(N)c3)nc2n1C[C@H](C)Oc1ccc(F)cn1 (single isomer, unassigned) [Example 178] was run?
**A.** Its IC50 is 0.176 µM.

**Q.** With Cc1nc2ccc(-c3cc(N)nc(N)c3)nc2n1C[C@@H](C)Oc1cccc(Br)n1 (single isomer, unassigned) [Example 181] as the compound, how does the IC50 read?
**A.** Its IC50 is 0.081 µM.

**Q.** For Cc1nc2ccc(-c3cc(N)nc(N)c3)nc2n1C[C@@H](C)Oc1ncccc1Br (single isomer, unassigned) [Example 183], which IC50 is on record?
**A.** The IC50 was 0.226 µM.

**Q.** With Cc1nc2ccc(-c3cc(N)nc(N)c3)nc2n1C[C@H](C)Oc1ccc(Cl)cn1 (single isomer, unassigned) [Example 184] as the compound, how does the IC50 read?
**A.** Its IC50 is 0.165 µM.

**Q.** With Cc1nc2ccc(-c3cc(N)nc(N)c3)nc2n1C[C@@H](C)Oc1ccc(Cl)cn1 (single isomer, unassigned) [Example 185] as the compound, how does the IC50 read?
**A.** The IC50 was 0.041 µM.

**Q.** For Cc1nc2ccc(-c3cc(N)nc(N)c3)nc2n1C[C@H](C)Oc1ccc(Br)cn1 (single isomer, unassigned) [Example 186], which IC50 is on record?
**A.** Its IC50 is 0.154 µM.

**Q.** For Cc1nc2ccc(-c3cc(N)nc(N)c3)nc2n1C[C@@H](C)Oc1ncccc1Cl (single isomer, unassigned) [Example 191], which IC50 is on record?
**A.** Its IC50 is 0.2 µM.

**Q.** How did the IC50 turn out when Cc1nc2ccc(-c3cc(N)nc(N)c3)nc2n1C[C@H](C)Oc1nc(F)ccc1F (single isomer, unassigned) [Example 192] was run?
**A.** The IC50 was 0.084 µM.

**Q.** For Cc1nc2ccc(-c3cc(N)nc(N)c3)nc2n1C[C@@H](C)Oc1nc(F)ccc1F (single isomer, unassigned) [Example 193], which IC50 is on record?
**A.** Its IC50 is 0.028 µM.

**Q.** For Cc1nc2ccc(-c3cc(N)nc(N)c3)nc2n1CCCCO [Example 70, 4-[5-(2,6-diaminopyridin-4-yl)-2-methyl-3H-imidazo[4,5-b]pyridin-3-yl]butan-1-ol], which IC50 is on record?
**A.** The IC50 was 0.013 µM.

**Q.** For Cc1nc2ccc(-c3cc(N)nc(N)c3)nc2n1CC1CCCOC1 (stereo not drawn) [Example 76, 4-[2-methyl-3-(tetrahydro-2H-pyran-3-ylmethyl)-3H-imidazo[4,5-b]pyridin-5-yl]pyridine-2,6-diamine], which IC50 is on record?
**A.** The IC50 was 0.04 µM.

**Q.** With Cc1nc2ccc(-c3cc(N)nc(N)c3)nc2n1CC1CCOCC1 [Example 80, 4-[2-methyl-3-(tetrahydro-2H-pyran-4-ylmethyl)-3H-imidazo[4,5-b]pyridin-5-yl]pyridine-2,6-diamine] as the compound, how does the IC50 read?
**A.** The IC50 was 0.043 µM.

**Q.** Cc1nc2ccc(-c3cc(N)nc(N)c3)nc2n1C(C)Cc1ccco1 (stereo not drawn) [Example 82, 4-{3-[1-(furan-2-yl)propan-2-yl]-2-methyl-3H-imidazo[4,5-b]pyridin-5-yl}pyridine-2,6-diamine] was tested. Which IC50 did it give?
**A.** The IC50 was 0.096 µM.

**Q.** How did the IC50 turn out when Cc1nc2ccc(-c3cc(N)nc(N)c3)nc2n1CCc1cccc(OC(C)C)c1 [Example 87] was run?
**A.** The IC50 was 0.017 µM.

**Q.** How did the IC50 turn out when Cc1nc2ccc(-c3cc(N)nc(N)c3)nc2n1CCC1CCCCC1C (stereo not drawn) [Example 102, 4-{2-methyl-3-[2-(2-methylcyclohexyl)ethyl]-3H-imidazo[4,5-b]pyridin-5-yl}pyridine-2,6-diamine] was run?
**A.** The IC50 was 0.017 µM.

**Q.** How did the IC50 turn out when Cc1nc2ccc(-c3cc(N)nc(N)c3)nc2n1C/C=C/c1ccccc1 [Example 111, 4-{2-methyl-3-[(2E)-3-phenylprop-2-en-1-yl]-3H-imidazo[4,5-b]pyridin-5-yl}pyridine-2,6-diamine] was run?
**A.** Its IC50 is 0.012 µM.

**Q.** Which IC50 does the source give for CCCCc1nc2ccc(-c3cc(N)nc(N)c3)nc2n1CCOc1ccccc1 [Example 146, 4-[2-butyl-3-(2-phenoxyethyl)-3H-imidazo[4,5-b]pyridin-5-yl]pyridine-2,6-diamine] here?
**A.** Its IC50 is 0.089 µM.

**Q.** How did the IC50 turn out when CCCCc1nc2ccc(-c3cc(N)nc(N)c3)nc2n1C [Example 147, 4-(2-butyl-3-methyl-3H-imidazo[4,5-b]pyridin-5-yl)pyridine-2,6-diamine] was run?
**A.** Its IC50 is 0.021 µM.

**Q.** With CCc1nc2ccc(-c3cc(N)nc(N)c3)nc2n1C [Example 159, 4-(2-ethyl-3-methyl-3H-imidazo[4,5-b]pyridin-5-yl)pyridine-2,6-diamine] as the compound, how does the IC50 read?
**A.** The IC50 was 0.043 µM.

**Q.** How did the IC50 turn out when CCCc1nc2ccc(-c3cc(N)nc(N)c3)nc2n1CCOc1ccccc1 [Example 162, 4-[3-(2-phenoxyethyl)-2-propyl-3H-imidazo[4,5-b]pyridin-5-yl]pyridine-2,6-diamine] was run?
**A.** Its IC50 is 0.056 µM.

**Q.** With CCCc1nc2ccc(-c3cc(N)nc(N)c3)nc2n1C [Example 163, 4-(3-methyl-2-propyl-31-imidazo[4,5-b]pyridin-5-yl)pyridine-2,6-diamine] as the compound, how does the IC50 read?
**A.** Its IC50 is 0.033 µM.

**Q.** For Cc1nc2ccc(-c3cc(N)nc(N)c3)nc2n1CCOc1ncccc1Br [Example 169, 4-(3-{2-[(3-bromopyridin-2-yl)oxy]ethyl}-2-methyl-3H-imidazo[4,5-b]pyridin-5-yl)pyridine-2,6-diamine], which IC50 is on record?
**A.** Its IC50 is 0.055 µM.

**Q.** How did the IC50 turn out when Cc1nc2ccc(-c3cc(N)nc(N)c3)nc2n1C[C@@H](C)Oc1ccc(Br)cn1 [Example 187] was run?
**A.** The IC50 was 0.082 µM.

**Q.** How did the IC50 turn out when Cc1cccc(OCCn2c(C)nc3ccc(-c4cc(N)nc(N)c4)nc32)c1 [Example 201, 4-{2-methyl-3-[2-(3-methylphenoxy)ethyl]-3H-imidazo[4,5-b]pyridin-5-yl}pyridine-2,6-diamine] was run?
**A.** Its IC50 is 0.021 µM.

**Q.** With Cc1nc2ccc(-c3cc(N)nc(N)c3)nc2n1CCOc1ccccc1Cl [Example 204, 4-{3-[2-(2-chlorophenoxy)ethyl]-2-methyl-3H-imidazo[4,5-b]pyridin-5-yl}pyridine-2,6-diamine] as the compound, how does the IC50 read?
**A.** Its IC50 is 0.041 µM.

**Q.** Which IC50 does the source give for Cc1ccccc1OCCn1c(C)nc2ccc(-c3cc(N)nc(N)c3)nc21 [Example 205, 4-{2-methyl-3-[2-(2-methylphenoxy)ethyl]-3H-imidazo[4,5-b]pyridin-5-yl}pyridine-2,6-diamine] here?
**A.** Its IC50 is 0.03 µM.

**Q.** With COc1ccc(OCCn2c(C)nc3ccc(-c4cc(N)nc(N)c4)nc32)cc1 [Example 209, 4-{3-[2-(4-methoxyphenoxy)ethyl]-2-methyl-3H-imidazo[4,5-b]pyridin-5-yl}pyridine-2,6-diamine] as the compound, how does the IC50 read?
**A.** Its IC50 is 0.025 µM.

**Q.** Which IC50 does the source give for COc1ccc(C)cc1OCCn1c(C)nc2ccc(-c3cc(N)nc(N)c3)nc21 [Example 211, 4-{3-[2-(2-methoxy-5-methylphenoxy)ethyl]-2-methyl-3H-imidazo[4,5-b]pyridin-5-yl}pyridine-2,6-diamine] here?
**A.** Its IC50 is 0.049 µM.

**Q.** With Cc1nc2ccc(-c3cc(N)nc(N)c3)nc2n1CCOc1ccccc1OC(C)C [Example 214, 4-(2-methyl-3-{2-[2-(propan-2-yloxy)phenoxy]ethyl}-3H-imidazo[4,5-b]pyridin-5-yl)pyridine-2,6-diamine] as the compound, how does the IC50 read?
**A.** The IC50 was 0.072 µM.

**Q.** For CCOc1ccccc1OCCn1c(C)nc2ccc(-c3cc(N)nc(N)c3)nc21 [Example 215, 4-{3-[2-(2-ethoxyphenoxy)ethyl]-2-methyl-3H-imidazo[4,5-b]pyridin-5-yl}pyridine-2,6-diamine], which IC50 is on record?
**A.** Its IC50 is 0.066 µM.

**Q.** Which IC50 does the source give for Cc1nc2ccc(-c3cc(N)nc(N)c3)nc2n1CCOc1cccnc1 [Example 216, 4-{2-methyl-3-[2-(pyridin-3-yloxy)ethyl]-3H-imidazo[4,5-b]pyridin-5-yl}pyridine-2,6-diamine] here?
**A.** The IC50 was 0.029 µM.

**Q.** Which IC50 does the source give for Cc1nc2ccc(-c3cc(N)nc(N)c3)nc2n1CCOc1ccnn1C [Example 218, 4-(2-methyl-3-{2-[(1-methyl-1H-pyrazol-5-yl)oxy]ethyl}-3H-imidazo[4,5-b]pyridin-5-yl)pyridine-2,6-diamine] here?
**A.** The IC50 was 0.057 µM.

**Q.** How did the IC50 turn out when Cc1nc2ccc(-c3cc(N)nc(N)c3)nc2n1CCOc1ncccn1 [Example 219, 4-{2-methyl-3-[2-(pyrimidin-2-yloxy)ethyl]-3H-imidazo[4,5-b]pyridin-5-yl}pyridine-2,6-diamine] was run?
**A.** Its IC50 is 0.04 µM.

**Q.** For C=CCCn1c(C)nc2ccc(-c3ccnc(N)c3)nc21 [Example 239, 4-[3-(but-3-en-1-yl)-2-methyl-3H-imidazo[4,5-b]pyridin-5-yl]pyridin-2-amine], which IC50 is on record?
**A.** The IC50 was 0.068 µM.

**Q.** Which IC50 does the source give for Cc1nc2ccc(-c3cc(F)nc(N)c3F)nc2n1C1CC1 [Example 241, 4-(3-cyclopropyl-2-methyl-3H-imidazo[4,5-b]pyridin-5-yl)-3,6-difluoropyridin-2-amine] here?
**A.** Its IC50 is 0.098 µM.

**Q.** How did the IC50 turn out when Cc1nc2ccc(-c3c(F)c(N)nc(N)c3F)nc2n1C1CC1 [Example 242, 4-(3-cyclopropyl-2-methyl-3H-imidazo[4,5-b]pyridin-5-yl)-3,5-difluoropyridine-2,6-diamine] was run?
**A.** Its IC50 is 0.154 µM.
